Assay results taken from patent publication US8609695B2, “Methods of treating and/or suppressing insulin resistance” (Endorecherche, Inc., priority 1999, dated 2013).

Tests used:
[1] = tested on: human breast cancer MCF-7 cells; assay: Proliferation of MCF-7 cell line, DNA content (Example 12); type: cell-based; settings: MCF-7 cells
Source text: MCF-7 human breast cancer cells were obtained from the American Type Culture Collection # HTB 22 at passage 147 and routinely grown in phenol red-free Dulbecco's Modified Eagle's-Ham's F12 medium, the supplements mentioned above and 5% FBS. The MCF-7 human breast adenocarcinoma cell line was derived from the pleural effusion of a patient. MCF-7 cells were used between passages 148 and 165 and subcultured weekly.
Cells in their late logarithmic growth phase were harvested with 0.1% pancreatin (Sigma) and resuspended in the appropriate medium containing 50 ng bovine insulin/ml and 5% (v/v) FBS treated twice with dextran-coated charcoal to remove endogenous steroids. Cells were plated in 24-well Falcon plastic culture plates (2 cm2/well) at the indicated density and allowed to adhere to the surface of the plates for 72 h. […] Control cells received only the ethanolic vehicle (0.1% EtOH,v/v). Cells were incubated for the specified time intervals with medium changes at 2- or 3-day intervals. Cell number was determined by measurement of DNA content.
Dose-response curves as well IC50 values were calculated using a weighted iterative nonlinear least-squares regression. All results are expressed as means±SEM.

[2] = tested on: ovariectomized female rats; assay: Uterine weight, fat and lipid, 20-day treatment (Example 13); type: in vivo, Rattus norvegicus; settings: 20 days
Method: The objective of this study was to compare the effect on uterine, weight, fat and blood lipids following treatment with EM-652.HCl, ERA-923 and lasofoxifene, administered alone or in combination with EM-652.HCl, to ovariectomized female rats. For this purpose, each compound was administered orally for 20 days to ovariectomized female rats and at the end of the treatment period, the uterus and fat were collected and weighed.
d) Diet: • Certified Rodent feed (Lab Diet #5002, pellets) and tap water were provided ad libitum. Randomization:
Seventy rats were separated into 7 groups of 9 to 11 animals for conduct of the study outlined below:
Animals from groups 2 to 9 were ovariectomized under Isoflurane-induced anesthesia on Day 7 of the study.
The vehicle or tested compounds were given as suspension in 0.4% methylcellulose by oral gavage (0.5 ml/gavage/rat) from Day 2 to Day 21 of the study.
Rats were weighed on Study Day 1 and at the necropsy (SD 22).
Approximately 24 hours after the last dosing, overnight fasted rats under Isoflurane-induced anesthesia were killed by exsanguination at the abdominal aorta.
Uteri and retroperitonal adipose tissue were removed and weighed.

[3] = tested on: ovariectomized female rats; assay: SERM comparison, energy balance and lipid-lipoprotein metabolism (Example 10); type: in vivo, Rattus norvegicus; settings: OVX rats, 20 days
Method: For this purpose, tested compounds were administered by oral gavage for 20 days (0.5 mg/rat for each compound; 0.5 ml/rat) in 0.4% methylcellulose to ovariectomized female rats.
d) Diet: • During acclimation period, rats received a certified rodent diet (Lab Diet #5002, pellet) and tap water ad libitum while during study period, they received a high carbonhydrate diet (diet #3) and tap water ad libitum. The diet was composed of (g/100 g): Corn starch, 31.2; Dextrose, 31.2; Casein, 20.0; corn oil, 6.4; dl-Methionine, 0.3; Vitamine mix, 1.0; AIN-76 mineral mix, 4.9; fiber, 5.0. Rats were fasted (with access to water only) around 07 h00 the morning of their necropsy Randomization:
Test group: Seventy-seven rats were assigned to 8 groups of 9-10 rats for conduct of the study outlined below.
On day 0 of the study, rats from group 2 to 8 were ovariectomized (by bilateral flank incision) under Isoflurane anesthesia. Rats from group 1 were sham-operated.
Rats were weighed on day 0 (surgery) and then, every 2 days during study period as well as on the day of necropsy.
Food consumption was evaluated every 2 days.
In order to determine the effect of treatments on fat percentage, body composition was measured on Day 17 of the study using dual energy x-ray absorptiometry (DEXA; QDR 4500A, Hologic, Waltham, Mass.).
On day 21 of the study, approximately 24 hours after the last dosing and 6 hours of fasting, animals under Ketamine-Xylazine anesthesia were killed by exsanguination at the abdominal aorta.
Blood lipids (Total cholesterol and Triglycerides) and glucose were measured on frozen serum samples using the Boehringer Mannheim Diagnostic Hitachi 911 Analyzer (Boehringer Mannheim Diagnostic Laboratory Systems). Circulating hormones and substrates (Insulin and leptin) were measured on serum sample using the following kits: • Insulin: Linco RIA kit • Leptin: Linco RIA kit Organs and Tissues Collected
The following tissues were collected and weighed: • Muscle (right soleus and right VLM), fat (right retroperitoneal and right inguinal), and brown adipose tissue.
A piece of ˜0.1 g of all tissues (except uterus and vagina) were frozen in liquid nitrogen and kept at −80 C for later determination of lipoprotein-lipase (LPL) activity.

[4] = OVX rats, commercial rodent diet, 0.5 mg oral, EM-652.HCl 2.5 mg in combinations
[5] = high carbohydrate diet, 0.5 mg/rat oral gavage

SMILES: Cc1c(-c2ccc(O)cc2)n(Cc2ccc(OCCN3CCCCC3)cc2)c2ccc(O)cc12 [ERA-923]
- EC50 ([1]; Homo sapiens, MCF7, text summary of table 12, read-out: EC50 of inhibition (antiestrogen activity)): 3.7 nM
- Stimulation of DNA by tested compounds % of 1 nM E2 stimulation ([1]; absence of E2): N.S.
- OVX-induced increase in total serum cholesterol levels ([2]; 0.5 mg): completely prevented
- effect on uterine weight compared to the OVX control animals [2]: no effect
- prevention of body weight increase induced by ovariectomy ([2]; OVX rats, 0.5 mg): 59%
- Cholesterol [2, 4]: 1.20 ± 0.10 mmol/L
- Final Body Weight [2, 4]: 248 ± 5 g
- Uterine Weight [2, 4]: 162.6 ± 5.2 mg
- Serum insulin (in words) ([3]; 0.5 mg/rat): decreased
- Brown adipose tissue Lipoprotein lipase activity [3, 5]: 1017 ± 83 μU/g protein
- Brown adipose tissue weight [3, 5]: 0.350 ± 0.019 g
- Cumulative food intake [3, 5]: 347 ± 9 g
- Serum glucose [3, 5]: 16.5 ± 2.7 mmol/L
- Serum insulin [3, 5]: 0.113 ± 0.029 nmol/L
- Serum leptin [3, 5]: 2.12 ± 0.44 ng/mL
- Serum total cholesterol [3, 5]: 1.66 ± 0.16 mmol/L
- Serum triglycerides [3, 5]: 0.93 ± 0.24 mmol/L
- Soleus muscle Lipoprotein lipase activity [3, 5]: 11.7 ± 1.9 μU/g protein
- Soleus muscle weight [3, 5]: 0.100 ± 0.004 g
- Total weight [3, 5]: 260 ± 5 g
- VastusLateralis muscle weight [3, 5]: 0.993 ± 0.33 g
- White adipose tissue inguinal Lipoprotein lipase activity [3, 5]: 766 ± 173 μU/g protein
- White adipose tissue inguinal weight [3, 5]: 0.326 ± 0.042 g
- White adipose tissue retroperitoneal Lipoprotein lipase activity [3, 5]: 1750 ± 140 μU/g protein
- White adipose tissue retroperitoneal weight [3, 5]: 1.27 ± 0.15 g
